Results taken from publication PMC3529809 (Steroids, 2012).

Columns and labels:
[1] = system: MCF-7 human breast cancer cells; test: Cell proliferation BrdU assay; type: cell-based
MCF-7 cells = conditions: cited from earlier work; for proliferation of MCF-7 cells: 1–10 µM concentrations
human ERβ = human ERβ (Homo sapiens, UniProt Q92731); test: ERELUC transient transfection reporter assay, ERβ in HepG2 cells; type: cell-based; conditions: for ERELUC activity in ERβ-expressing HepG2 cells: 5 µM, 24 h, Fig. 1B, result in words; for effect on ERβ-mediated induction of ERELUC by E2, DHEA, 7-oxo-DHEA, ADIOL and ADIONE: 1 µM ICI, 100 nM 4-OHT, 1 µM R,R-THC, 5 µM sterol, Fig. 3B
hERα = hERα (Homo sapiens, UniProt P03372); test: ERELUC transient transfection reporter assay, ERα in HEK-293 cells; type: cell-based
[2] = MEK1/2 inhibitor, data not shown

Chain of human ERβ (Q92731 whole entry): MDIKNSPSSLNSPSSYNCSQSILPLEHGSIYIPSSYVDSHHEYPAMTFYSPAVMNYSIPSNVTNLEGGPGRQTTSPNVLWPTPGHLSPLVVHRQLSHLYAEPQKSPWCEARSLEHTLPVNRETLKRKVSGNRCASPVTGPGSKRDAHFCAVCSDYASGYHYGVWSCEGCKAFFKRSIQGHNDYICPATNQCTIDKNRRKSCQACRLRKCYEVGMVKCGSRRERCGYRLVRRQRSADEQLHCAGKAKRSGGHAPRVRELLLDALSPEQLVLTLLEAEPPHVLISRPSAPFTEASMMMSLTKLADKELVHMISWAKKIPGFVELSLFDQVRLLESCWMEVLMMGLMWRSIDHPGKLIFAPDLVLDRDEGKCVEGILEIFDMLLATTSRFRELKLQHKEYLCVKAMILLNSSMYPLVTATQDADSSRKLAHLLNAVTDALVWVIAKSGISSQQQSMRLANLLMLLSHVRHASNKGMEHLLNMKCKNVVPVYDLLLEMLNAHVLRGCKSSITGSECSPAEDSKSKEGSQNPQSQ
Chain of hERα (P03372 whole entry): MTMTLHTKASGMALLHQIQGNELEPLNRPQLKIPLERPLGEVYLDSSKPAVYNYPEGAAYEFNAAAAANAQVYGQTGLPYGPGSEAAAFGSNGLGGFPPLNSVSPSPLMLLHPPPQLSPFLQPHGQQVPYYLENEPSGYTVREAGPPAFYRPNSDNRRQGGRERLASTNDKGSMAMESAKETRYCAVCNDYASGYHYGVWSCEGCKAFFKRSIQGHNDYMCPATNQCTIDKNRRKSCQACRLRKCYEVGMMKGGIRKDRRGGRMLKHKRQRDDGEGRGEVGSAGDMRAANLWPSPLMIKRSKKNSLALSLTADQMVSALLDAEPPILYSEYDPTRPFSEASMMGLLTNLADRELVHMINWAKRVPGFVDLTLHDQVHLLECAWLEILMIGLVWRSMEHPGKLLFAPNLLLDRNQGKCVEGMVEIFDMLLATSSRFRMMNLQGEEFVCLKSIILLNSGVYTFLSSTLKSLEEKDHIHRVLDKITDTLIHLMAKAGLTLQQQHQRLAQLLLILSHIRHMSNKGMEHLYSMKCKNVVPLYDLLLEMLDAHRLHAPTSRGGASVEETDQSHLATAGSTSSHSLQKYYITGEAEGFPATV

In the case of `C[C@]12CCC(=O)C[C@@H]1CC[C@@H]1[C@@H]2CC[C@]2(C)[C@@H](O)CC[C@@H]12` [DHT, dihydrotestosterone, reference compound], the MCF-7 cell proliferation ([1]; 48 h BrdU, 10 nM E2, 5 µM sterols, Fig. 7) is listed as “concentration-dependent increase” and the “proliferation of MCF-7 cells” value (MCF-7 cells) is listed as “stimulated proliferation”.
With `C[C@]12CC[C@H](O)CC1=CC[C@@H]1[C@@H]2[C@@H](O)C[C@]2(C)C(=O)CC[C@@H]12` [11β-OH-DHEA, 11β-hydroxy-DHEA] the “ERELUC activity in ERβ-expressing HepG2 cells” value (human ERβ) was “suppressed”.
For `C[C@]12CC[C@H](O)C[C@@H]1C[C@H](O)[C@@H]1[C@@H]2CC[C@]2(C)C(=O)CC[C@@H]12` [7β-OH-EpiA, 7β-Hydroxy-epiandrosterone], the “E2-induced proliferation of MCF-7 cells” value (MCF-7 cells; 1–100 nM, no dose-response detected) is given as “inhibited” and the “cell proliferation, compound alone” value (MCF-7 cells; 1–100 nM) is given as “did not affect”.
In the case of `C[C@]12CC[C@H](O)CC1=C[C@H](O)[C@@H]1[C@@H]2CC[C@]2(C)C(=O)CC[C@@H]12` [7β-OH-DHEA, 7β-hydroxy-DHEA], the “ERELUC activity in ERβ-expressing HepG2 cells” value (human ERβ) is reported as “suppressed”.
With `C=C1C[C@@H]2[C@H](CC[C@]3(C)C(=O)CC[C@@H]23)[C@@]2(C)C=CC(=O)C=C12` [exemestane, reference compound] the “effect on E2, DHEA or ADIOL induced ERELUC activity in ERα-transfected cells” value (hERα; 100 nM exemestane, HEK-293, Fig. 4A) was “did not significantly inhibit”, the “effect on ADIONE activation of ERβ” value (human ERβ; 100 nM exemestane, HepG2, Fig. 4B) was “no effect” and the inhibition at 0.1 µM (human ERβ; HepG2, read-out: inhibition of DHEA-, ADIOL- and 7-oxo-DHEA-induced ERELUC reporter activity) was 20 to 30%. The “effect on proliferation with ADIOL or ADIONE” value ([1]; 100 nM exemestane, 5 µM sterol, 48 h) was “no inhibitory activity”.
For `C[C@]12CC[C@H](O)C[C@@H]1C[C@@H](O)[C@@H]1[C@@H]2CC[C@]2(C)C(=O)CC[C@@H]12` [7α-OH-EpiA, 7α-hydroxy-epiandrosterone], the MCF-7 proliferation (MCF-7 cells; 1–100 nM) is listed as “inhibited”.
In the case of `C[C@]12CC[C@H]3[C@@H](CCC4=CC(=O)CC[C@@]43C)[C@@H]1CC[C@@H]2O` [testosterone], the “proliferation of MCF-7 cells” value (MCF-7 cells) is given as “stimulated proliferation”.
In the case of `CC[C@@H]1Cc2cc(O)ccc2C2=C1c1ccc(O)cc1C[C@H]2CC` (relative stereo) [R,R-THC, R,R-cis-diethyl tetrahydrochrysene, reference compound], the “effect on ERβ-mediated induction of ERELUC by E2, DHEA, 7-oxo-DHEA, ADIOL and ADIONE” value (“effect on ERβ-mediated induction” for short) (human ERβ) is reported as “significantly inhibited”.
With `COc1cccc(-c2cc(=O)c3ccccc3o2)c1N` [PD998059, reference compound] the “effect on DHEA or metabolite-induced ERELUC activity, ERα” value (hERα; [2]) was “did not block” and the “effect on DHEA or metabolite-induced ERELUC activity, ERβ” value (human ERβ; [2]) was “did not block”.
In the case of `CC(O)(CS(=O)(=O)c1ccc(F)cc1)C(=O)Nc1ccc(C#N)c(C(F)(F)F)c1` (stereo not shown) [Bicalutamide, reference compound], the “effect on DHEA-, 7-oxo-DHEA-, ADIOL- and ADIONE-induced proliferation” value ([1]; 10 µM bicalutamide, pretreatment 4 h, also blocked DHT-induced proliferation) is reported as “inhibited”.
In the case of `C[C@]12CCC(=O)C=C1CC[C@@H]1[C@@H]2CC[C@]2(C)C(=O)CC[C@@H]12` [androst-4-ene-3,17-dione], the “ERELUC activity in ERβ-expressing HepG2 cells” value (human ERβ) is reported as “effective in activating”.
With `C[C@]12CC[C@@H]3c4ccc(O)cc4C[C@@H](CCCCCCCCC[S+]([O-])CCCC(F)(F)C(F)(F)F)[C@H]3[C@@H]1CC[C@@H]2O` (stereo partly shown) [ICI 182,780, reference compound] the “effect on ERα-mediated induction of ERELUC by E2, DHEA, DHEA-S and ADIOL” value (hERα; 1 µM ICI, 100 nM 4-OHT, 1 µM R,R-THC, 5 µM sterol, Fig. 3A) was “inhibited”, the “effect on ERβ-mediated induction” value (human ERβ) was “inhibited” and the “effect on E2-induced stimulation of MCF-7 cell proliferation” value ([1]; 100 nM ICI 182,780, pretreatment 6 h) was “inhibited”. For the same compound, the “effect on the proliferative activity of 10 nM DHEA in MCF-7 cells” value (MCF-7 cells) was “lack of inhibition”.
With `CC/C(=C(\c1ccc(O)cc1)c1ccc(OCCN(C)C)cc1)c1ccccc1` [4-OHT, 4-hydroxytamoxifen, reference compound] the “effect on ERβ-mediated induction” value (human ERβ) was “inhibited”.
